ChEMBL document CHEMBL6134887, “Linker and Head-Group Exploration of Anti-MRSA Triaromatic Pleuromutilins” (J Med Chem, 2025)
In brackets after ≈: the same amount, converted by molar mass.

Assays:
Staphylococcus aureus = experiment: Antibacterial activity against methicillin resistant Staphylococcus aureus USA300 FPR3757 assessed as inhibition of bacterial growth incubated for 20 to 24 hrs by microbroth serial dilution method; assay type: functional; settings: time 20-24 hrs, read-out: MIC100
[1] = Metabolic stability in mouse liver microsomes assessed as half-life at 1 uM measured up to 60 mins by LC-MS/MS analysis; assay type: ADME, Microsome
[2] = Metabolic stability in mouse liver assessed as intrinsic clearance at 1 uM measured up to 60 mins by LC-MS/MS analysis; assay type: ADME, tissue-based; settings: read-out: CLH
[3] = Metabolic stability in human liver microsomes assessed as half-life at 1 uM measured up to 30 mins by LC-MS/MS analysis; assay type: ADME, Microsome
[4] = Metabolic stability in human liver assessed as intrinsic clearance at 1 uM measured up to 30 mins by LC-MS/MS analysis; assay type: ADME, tissue-based; settings: read-out: CLH

Row | Compound | MIC (Staphylococcus aureus) [µg/mL] | other results
1 | C=C[C@]1(C)C[C@@H](OC(=O)Cn2cc(-c3cncc(NC(=O)c4ccc(OC)nc4)c3)nn2)[C@]2(C)[C@H](C)CC[C@]3(CCC(=O)[C@H]32)[C@@H](C)[C@@H]1O | 0.12 (≈ 0.183 µM) | half-life at 1 µM [1]: 0.57 min; CLint scaled at 1 µM [2]: 574 L/h/kg; half-life at 1 µM [3]: 2.4 min; CLint scaled at 1 µM [4]: 154 L/h/kg
2 | C=C[C@]1(C)C[C@@H](OC(=O)Cn2cc(-c3ccc(NC(=O)c4ccc(OC)cc4)cc3)nn2)[C@]2(C)[C@H](C)CC[C@]3(CCC(=O)[C@H]32)[C@@H](C)[C@@H]1O | 8 (≈ 12.2 µM) | –
3 | C=C[C@]1(C)C[C@@H](OC(=O)Cn2cc(-c3cccc(C(=O)Nc4ncnc5[nH]cnc45)c3)nn2)[C@]2(C)[C@H](C)CC[C@]3(CCC(=O)[C@H]32)[C@@H](C)[C@@H]1O | 0.12 (≈ 0.18 µM) | half-life at 1 µM [1]: 1.2 min; CLint scaled at 1 µM [2]: 276 L/h/kg; half-life at 1 µM [3]: 2.7 min; CLint scaled at 1 µM [4]: 140 L/h/kg
4 | C=C[C@]1(C)C[C@@H](OC(=O)Cn2cc(-c3ccc(CNc4cc(N)ncn4)cc3)nn2)[C@]2(C)[C@H](C)CC[C@]3(CCC(=O)[C@H]32)[C@@H](C)[C@@H]1O | 0.03 (≈ 0.0478 µM) | half-life at 1 µM [1]: 0.55 min; CLint scaled at 1 µM [2]: > 600 L/h/kg; half-life at 1 µM [3]: 1.3 min; CLint scaled at 1 µM [4]: 289 L/h/kg
5 | C=C[C@]1(C)C[C@@H](OC(=O)Cn2cc(-c3cncc(C(=O)Nc4ncnc5[nH]cnc45)c3)nn2)[C@]2(C)[C@H](C)CC[C@]3(CCC(=O)[C@H]32)[C@@H](C)[C@@H]1O | 0.06 (≈ 0.0899 µM) | half-life at 1 µM [1]: 1.3 min; CLint scaled at 1 µM [2]: 246 L/h/kg; half-life at 1 µM [3]: 3.6 min; CLint scaled at 1 µM [4]: 104 L/h/kg
6 | C=C[C@]1(C)C[C@@H](OC(=O)Cn2cc(-c3ccc(Cn4cnc5c(=O)[nH]c(N)nc54)nc3)nn2)[C@]2(C)[C@H](C)CC[C@]3(CCC(=O)[C@H]32)[C@@H](C)[C@@H]1O | 8 (≈ 11.9 µM) | –
7 | C=C[C@]1(C)C[C@@H](OC(=O)Cn2cc(-c3ccc(Cn4ccc(=O)[nH]c4=O)cc3)nn2)[C@]2(C)[C@H](C)CC[C@]3(CCC(=O)[C@H]32)[C@@H](C)[C@@H]1O | 0.12 (≈ 0.191 µM) | –
8 | C=C[C@]1(C)C[C@@H](OC(=O)Cn2cc(-c3ccc(Cn4cc(C)c(=O)[nH]c4=O)nc3)nn2)[C@]2(C)[C@H](C)CC[C@]3(CCC(=O)[C@H]32)[C@@H](C)[C@@H]1O | 0.12 (≈ 0.186 µM) | –
9 | C=C[C@]1(C)C[C@@H](OC(=O)Cn2cc(-c3cncc(C(=O)Nc4ccccn4)c3)nn2)[C@]2(C)[C@H](C)CC[C@]3(CCC(=O)[C@H]32)[C@@H](C)[C@@H]1O | 0.06 (≈ 0.0957 µM) | –
10 | C=C[C@]1(C)C[C@@H](OC(=O)Cn2cc(-c3ccc(Cn4ccnc4)cc3)nn2)[C@]2(C)[C@H](C)CC[C@]3(CCC(=O)[C@H]32)[C@@H](C)[C@@H]1O | 0.25 (≈ 0.427 µM) | –
11 | C=C[C@]1(C)C[C@@H](OC(=O)Cn2cc(-c3cccc(C(=O)Nc4ccccc4)c3)nn2)[C@]2(C)[C@H](C)CC[C@]3(CCC(=O)[C@H]32)[C@@H](C)[C@@H]1O | 0.25 (≈ 0.4 µM) | –
12 | C=C[C@]1(C)C[C@@H](OC(=O)Cn2cc(-c3ccc(Cn4cncc4CO)nc3)nn2)[C@]2(C)[C@H](C)CC[C@]3(CCC(=O)[C@H]32)[C@@H](C)[C@@H]1O | 2 (≈ 3.24 µM) | –
13 | C=C[C@]1(C)C[C@@H](OC(=O)Cn2cc(-c3ccc(Cn4cnc5c(=O)[nH]c(N)nc54)cc3)nn2)[C@]2(C)[C@H](C)CC[C@]3(CCC(=O)[C@H]32)[C@@H](C)[C@@H]1O | 2 (≈ 2.99 µM) | –
14 | C=C[C@]1(C)C[C@@H](OC(=O)Cn2cc(-c3ccc(Cn4cnc5c(N)ncnc54)c(O)c3)nn2)[C@]2(C)[C@H](C)CC[C@]3(CCC(=O)[C@H]32)[C@@H](C)[C@@H]1O | – | half-life at 1 µM [1]: 0.56 min; CLint scaled at 1 µM [2]: 586 L/h/kg
15 | C=C[C@]1(C)C[C@@H](OC(=O)Cn2cc(-c3cccc(NC(=O)c4ccccc4)c3)nn2)[C@]2(C)[C@H](C)CC[C@]3(CCC(=O)[C@H]32)[C@@H](C)[C@@H]1O | 0.25 (≈ 0.4 µM) | –
16 | C=C[C@]1(C)C[C@@H](OC(=O)Cn2cc(-c3ccnc(NC(=O)c4cnc(OC)cn4)c3)nn2)[C@]2(C)[C@H](C)CC[C@]3(CCC(=O)[C@H]32)[C@@H](C)[C@@H]1O | 0.25 (≈ 0.38 µM) | –

Row | Compound | MIC (Staphylococcus aureus) [µg/mL] | other results
17 | C=C[C@]1(C)C[C@@H](OC(=O)Cn2cc(-c3ccc(C(O)c4ccc5c(N)ncnn45)cc3)nn2)[C@]2(C)[C@H](C)CC[C@]3(CCC(=O)[C@H]32)[C@@H](C)[C@@H]1O (stereo not given in full) | 0.06 (≈ 0.0898 µM) | –
18 | C=C[C@]1(C)C[C@@H](OC(=O)Cn2cc(-c3cccc(NC(=O)c4ccc(OC)nc4)c3)nn2)[C@]2(C)[C@H](C)CC[C@]3(CCC(=O)[C@H]32)[C@@H](C)[C@@H]1O | 0.12 (≈ 0.183 µM) | –
19 | C=C[C@]1(C)C[C@@H](OC(=O)Cn2cc(-c3ccc(Cn4cnc5c(=O)[nH]cnc54)cc3)nn2)[C@]2(C)[C@H](C)CC[C@]3(CCC(=O)[C@H]32)[C@@H](C)[C@@H]1O | 0.06 (≈ 0.0918 µM) | –
20 | O=C(O)Cc1ccccc1Nc1c(Cl)cccc1Cl [DICLOFENAC] | – | half-life at 1 µM [1]: 20.2 min; CLint scaled at 1 µM [2]: 16.3 L/h/kg
21 | C=C[C@]1(C)C[C@@H](OC(=O)Cn2cc(-c3cncc(NC(=O)c4c[nH]c(=O)cn4)c3)nn2)[C@]2(C)[C@H](C)CC[C@]3(CCC(=O)[C@H]32)[C@@H](C)[C@@H]1O | 1 (≈ 1.55 µM) | –
22 | C=C[C@]1(C)C[C@@H](OC(=O)Cn2cc(-c3cccc(Oc4nc(N)nc5[nH]cnc45)c3)nn2)[C@]2(C)[C@H](C)CC[C@]3(CCC(=O)[C@H]32)[C@@H](C)[C@@H]1O | 0.12 (≈ 0.183 µM) | –
23 | C=C[C@]1(C)C[C@@H](OC(=O)Cn2cc(-c3ccc(Cn4ccc(N)nc4=O)nc3)nn2)[C@]2(C)[C@H](C)CC[C@]3(CCC(=O)[C@H]32)[C@@H](C)[C@@H]1O | 8 (≈ 12.7 µM) | –
24 | C=C[C@]1(C)C[C@@H](OC(=O)Cn2cc(-c3ccc(Cn4ccc5c(N)ncnc54)cc3)nn2)[C@]2(C)[C@H](C)CC[C@]3(CCC(=O)[C@H]32)[C@@H](C)[C@@H]1O | 0.06 (≈ 0.0921 µM) | –
25 | C=C[C@]1(C)C[C@@H](OC(=O)Cn2cc(-c3cncc(C(=O)Nc4ccc(N)cc4)c3)nn2)[C@]2(C)[C@H](C)CC[C@]3(CCC(=O)[C@H]32)[C@@H](C)[C@@H]1O | 0.12 (≈ 0.187 µM) | –
26 | C=C[C@]1(C)C[C@@H](OC(=O)Cn2cc(-c3cccc(Oc4ncnc5[nH]cnc45)c3)nn2)[C@]2(C)[C@H](C)CC[C@]3(CCC(=O)[C@H]32)[C@@H](C)[C@@H]1O | 0.12 (≈ 0.188 µM) | –
27 | C=C[C@]1(C)C[C@@H](OC(=O)Cn2cc(-c3cncc(C(=O)Nc4ccc(OC)cc4)c3)nn2)[C@]2(C)[C@H](C)CC[C@]3(CCC(=O)[C@H]32)[C@@H](C)[C@@H]1O | 0.12 (≈ 0.183 µM) | –
28 | C=C[C@]1(C)C[C@@H](OC(=O)Cn2cc(-c3ccc(NC(=O)c4ccccc4)cc3)nn2)[C@]2(C)[C@H](C)CC[C@]3(CCC(=O)[C@H]32)[C@@H](C)[C@@H]1O | 4 (≈ 6.4 µM) | –
29 | C=C[C@]1(C)C[C@@H](OC(=O)Cn2cc(-c3ccc(Cn4cnc(CO)c4)nc3)nn2)[C@]2(C)[C@H](C)CC[C@]3(CCC(=O)[C@H]32)[C@@H](C)[C@@H]1O | 2 (≈ 3.24 µM) | –
30 | C=C[C@]1(C)C[C@@H](OC(=O)Cn2cc(-c3ccc(Cn4ccc5c(N)ncnc54)c(O)c3)nn2)[C@]2(C)[C@H](C)CC[C@]3(CCC(=O)[C@H]32)[C@@H](C)[C@@H]1O | 0.06 (≈ 0.0898 µM) | –
31 | C=C[C@]1(C)C[C@@H](OC(=O)Cn2cc(-c3ccc(Cn4ccnc4N)cc3)nn2)[C@]2(C)[C@H](C)CC[C@]3(CCC(=O)[C@H]32)[C@@H](C)[C@@H]1O | 0.5 (≈ 0.832 µM) | –
32 | C=C[C@]1(C)C[C@@H](OC(=O)Cn2cc(-c3ccc(CNc4cc(N)ncn4)nc3)nn2)[C@]2(C)[C@H](C)CC[C@]3(CCC(=O)[C@H]32)[C@@H](C)[C@@H]1O | 0.06 (≈ 0.0954 µM) | –
